# Target: MCH receptor (Homo sapiens, UniProt Q99705)
# Assay: High throughput functional screening FLIPR/FDSS6000: inhibition of MCH-evoked intracellular Ca2+ changes
# Format: cell-based
# Details: class by percent of control at 10^-7 M or IC50
# Procedure, shortened: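 Cells expressing constitutively active MCH receptor, loaded with 4 μM Fluo4-AM for 1 h at 37 °C, were pretreated 3 min with compound, then challenged with MCH (50 nM for antagonist testing). MCH-evoked [Ca2+]i transients followed by FLIPR or FDSS (ex 488/em 530 nm) over 290 s.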
row,SMILES,class
1,"CN(C)c1nc(N[C@H]2CC[C@@H](CNC(=O)Nc3ccc4c(c3)C(F)(F)OC(F)(F)O4)CC2)nc2ccccc12 [compound 755, N-[(cis-4-{[4-(dimethylamino)quinazolin-2-yl]amino}-cyclohexyl)methyl]-N′-(2,2,4,4,-tetrafluoro-4H-1,3-benzodioxin-6-yl)urea]",3 (Class 3: The value of percent of control at 10^−7 M was more than 60% or the value of IC50 was more than 200 nM.)
2,Cc1cc(Br)ccc1NC(=O)N[C@H]1CC[C@@H](Nc2nc(N(C)C)c3ccccc3n2)CC1 [compound 334],1 (Class 1: The value of percent of control at 10^−7 M was less than 40% or the value of IC50 was less than 50 nM.)
3,Cc1ccc(NC(=S)NC[C@H]2CC[C@@H](Nc3nc(N(C)C)c4ccccc4n3)CC2)cc1Cl [compound 687],3 (Class 3: The value of percent of control at 10^−7 M was more than 60% or the value of IC50 was more than 200 nM.)
4,CN(C)c1nc(N[C@H]2CC[C@@H](NC(=S)Nc3ccc(-n4cccn4)cc3)CC2)nc2ccccc12 [compound 397],3 (Class 3: The value of percent of control at 10^−7 M was more than 60% or the value of IC50 was more than 200 nM.)
5,CN(C)c1nc(N[C@H]2CC[C@@H](CNC(=S)NC3CCCC3)CC2)nc2ccccc12 [compound 586],3 (Class 3: The value of percent of control at 10^−7 M was more than 60% or the value of IC50 was more than 200 nM.)
6,CN(C)c1nc(N[C@H]2CC[C@@H](CNC(=S)Nc3ccc(Cl)c(C(F)(F)F)c3)CC2)nc2ccccc12 [compound 659],3 (Class 3: The value of percent of control at 10^−7 M was more than 60% or the value of IC50 was more than 200 nM.)
7,CN(C)c1nc(N[C@H]2CC[C@@H](NC(=S)Nc3cccc(OCc4ccccc4)c3)CC2)nc2ccccc12 [compound 261],3 (Class 3: The value of percent of control at 10^−7 M was more than 60% or the value of IC50 was more than 200 nM.)
8,CN(C)c1nc(N[C@H]2CC[C@@H](CNC(=S)NC3CCCCCCC3)CC2)nc2ccccc12 [compound 711],3 (Class 3: The value of percent of control at 10^−7 M was more than 60% or the value of IC50 was more than 200 nM.)
9,CN(C)c1nc(N[C@H]2CC[C@@H](NC(=S)Nc3ccccc3C#N)CC2)nc2ccccc12 [compound 299],3 (Class 3: The value of percent of control at 10^−7 M was more than 60% or the value of IC50 was more than 200 nM.)
10,CN(C)c1nc(N[C@H]2CC[C@@H](CNC(=O)NC3CCN(C(=O)OCc4ccccc4)CC3)CC2)nc2ccccc12 [compound 770],3 (Class 3: The value of percent of control at 10^−7 M was more than 60% or the value of IC50 was more than 200 nM.)
11,"CN(C)c1nc(N[C@H]2CC[C@@H](NC(=S)Nc3c(Cl)cc(Cl)cc3Cl)CC2)nc2ccccc12 [compound 246, N-(cis-4-{[4-(dimethylamino)quinazolin-2-yl]amino}cyclohexyl)-N′-(2,4,6-trichlorophenyl)thiourea]",1 (Class 1: The value of percent of control at 10^−7 M was less than 40% or the value of IC50 was less than 50 nM.)
12,"COC(=O)[C@H](CCSC)NC(=O)NC[C@H]1CC[C@@H](Nc2nc(N(C)C)c3ccccc3n2)CC1 (relative stereo) [compound 442, methyl N-({[(cis-4-{[4-(dimethylamino)quinazolin-2-yl]amino}cyclohexyl)methyl]amino}carbonyl)methioninate]",2 (Class 2: The value of percent of control at 10^−7 M was from 40% to 60% or the value of IC50 was from 50 nM to 200 nM.)
13,CN(C)c1nc(N[C@H]2CC[C@@H](CNC(=O)Nc3ccc(Cl)cc3[N+](=O)[O-])CC2)nc2ccccc12 [compound 547],3 (Class 3: The value of percent of control at 10^−7 M was more than 60% or the value of IC50 was more than 200 nM.)
14,COc1ccc(NC(=O)NC[C@H]2CC[C@@H](Nc3nc(N(C)C)c4ccccc4n3)CC2)c([N+](=O)[O-])c1 [compound 557],3 (Class 3: The value of percent of control at 10^−7 M was more than 60% or the value of IC50 was more than 200 nM.)
15,CN(C)c1nc(N[C@H]2CC[C@@H](NC(=S)Nc3cc(C(F)(F)F)ccc3Cl)CC2)nc2ccccc12 [compound 253],3 (Class 3: The value of percent of control at 10^−7 M was more than 60% or the value of IC50 was more than 200 nM.)
16,CN(C)c1nc(N[C@H]2CC[C@@H](NC(=S)NCc3cccnc3)CC2)nc2ccccc12 [compound 396],3 (Class 3: The value of percent of control at 10^−7 M was more than 60% or the value of IC50 was more than 200 nM.)
17,"CN(C)c1nc(N[C@H]2CC[C@@H](CNC(=S)Nc3c(Cl)cc(Cl)cc3Cl)CC2)nc2ccccc12 [compound 670, N-[(cis-4-{[4-(dimethylamino)quinazolin-2-yl]amino}cyclohexyl)methyl]-N′-(2,4,6-trichlorophenyl)thiourea]",2 (Class 2: The value of percent of control at 10^−7 M was from 40% to 60% or the value of IC50 was from 50 nM to 200 nM.)
18,"Cc1cc(Br)cc(C)c1NC(=O)N[C@H]1CC[C@@H](Nc2nc(N(C)C)c3ccccc3n2)CC1 [compound 333, N-(4-bromo-2,6-dimethylphenyl)-N′-(cis-4-{[4-(dimethylamino)quinazolin-2-yl]amino}cyclohexyl)urea]",1 (Class 1: The value of percent of control at 10^−7 M was less than 40% or the value of IC50 was less than 50 nM.)
19,CN(C)c1nc(N[C@H]2CC[C@@H](NC(=S)NC3CCCCCCCCCCC3)CC2)nc2ccccc12 [compound 285],3 (Class 3: The value of percent of control at 10^−7 M was more than 60% or the value of IC50 was more than 200 nM.)

# Same assay, conditions: class by percent of control at 10^-7 M or by IC50; read-out: class
row,IC50,SMILES
1,< 50 nM,"COc1cc(NC(=O)N[C@H]2CC[C@@H](Nc3nc(N(C)C)c4ccccc4n3)CC2)cc(OC)c1OC [compound 121, N-(cis-4-{[4-(dimethylamino)quinazolin-2-yl]amino}cyclohexyl)-N′-(3,4,5-trimethoxyphenyl)urea]"
2,50 to 200 nM,CN(C)c1nc(N[C@H]2CC[C@@H](NC(=O)OCc3ccccc3)CC2)nc2ccccc12 [compound 858]
3,> 200 nM,CCOC(=O)N[C@H]1CC[C@@H](Nc2nc(N(C)C)c3ccccc3n2)CC1 [compound 854]
4,< 50 nM,"CN(C)c1nc(N[C@H]2CC[C@@H](NC(=O)NC(c3ccccc3)c3ccccc3)CC2)nc2ccccc12 [compound 844, N-(cis-4-{[4-(dimethylamino)quinazolin-2-yl]amino}cyclohexyl)-N′-(diphenylmethyl)urea]"
5,> 200 nM,CCCCc1ccc(NC(=S)NC[C@H]2CC[C@@H](Nc3nc(N(C)C)c4ccccc4n3)CC2)c(C)c1 [compound 805]
6,50 to 200 nM,"CC(C)CNC(=S)N[C@H]1CC[C@@H](Nc2nc(N(C)C)c3ccccc3n2)CC1 [compound 178, N-(cis-4-{[4-(dimethylamino)quinazolin-2-yl]amino}cyclohexyl)-N′-isobutylthiourea]"
7,> 200 nM,CN(C)c1nc(N[C@H]2CC[C@@H](NC(=O)Nc3ccc4c(c3)CCC4)CC2)nc2ccccc12 [compound 839]
8,< 50 nM,"Cc1cccc(C(C)C)c1NC(=O)N[C@H]1CC[C@@H](Nc2nc(N(C)C)c3ccccc3n2)CC1 [compound 102, N-(cis-4-{[4-(dimethylamino)quinazolin-2-yl]amino}cyclohexyl)-N′-(2-isopropyl-6-methylphenyl)urea]"

# Same assay, conditions: class by percent of control at 10^−7 M or by IC50; read-out: class
row,IC50,SMILES
1,< 50 nM,"CN(C)c1nc(N[C@H]2CC[C@@H](CNC(=O)Nc3cc(Cl)cc(Cl)c3)CC2)nc2ccccc12 [Example 1024, N-(3,5-dichlorophenyl)-N′-[(cis-4-{[4-(dimethylamino)quinazolin-2-yl]amino}cyclohexyl)methyl]urea]"
2,50 to 200 nM,"COc1cc(OC)cc(Oc2ccc(C(=O)N[C@H]3CC[C@@H](Nc4nc(N(C)C)c5ccccc5n4)CC3)cn2)c1 [Example 1071, 6-(3,5-dimethoxyphenoxy)-N-(cis-4-{[4-(dimethylamino)quinazolin-2-yl]amino}cyclohexyl)nicotinamide]"
3,< 50 nM,"CN(C)c1nc(N[C@H]2CC[C@@H](NC(=O)Nc3cccc(OC(F)(F)F)c3)CC2)nc2ccccc12 [Example 1009, N-(cis-4-{[4-(dimethylamino)quinazolin-2-yl]amino}cyclohexyl)-N′-[3-(trifluoromethoxy)phenyl]urea]"
4,< 50 nM,"CN(C)c1nc(N[C@H]2CC[C@@H](CNC(=O)c3cccc(Cl)c3)C2)nc2ccccc12 [Example 1122, 3-chloro-N-[((1R,3S)-3-{[4-(dimethylamino)quinazolin-2-yl]amino}cyclopentyl)methyl]benzamide]"
5,< 50 nM,"C[C@H](NC(=O)[C@H]1CC[C@@H](Nc2nc(N(C)C)c3ccccc3n2)CC1)c1cccc2ccccc12 [Example 1141, cis-4-{[4-(dimethylamino)quinazolin-2-yl]amino}-N-[(1S)-1-(1-naphthyl)ethyl]cyclohexanecarboxamide]"
6,50 to 200 nM,"CN(C)c1nc(N[C@H]2CC[C@@H](CNC(=O)[C@H](O)c3ccccc3Cl)CC2)nc2ccccc12 [Example 1101, (2R)-2-(2-chlorophenyl)-N-[(cis-4-{[4-(dimethylamino)-quinazolin-2-yl]amino}cyclohexyl)methyl]-2-hydroxyacetamide]"
7,< 50 nM,"COc1cc(OC)cc(C(=O)NC[C@@H]2CC[C@H](Nc3nc(N(C)C)c4ccccc4n3)C2)c1 [Example 1120, N-[((1R,3S)-3-{[4-(dimethylamino)quinazolin-2-yl]amino}cyclopentyl)methyl]-3,5-dimethoxybenzamide]"
8,> 200 nM,"CN(C)c1nc(N[C@H]2CC[C@@H](CNC(=O)[C@@H](O)c3ccccc3)CC2)nc2ccccc12 [Example 1103, (2S)-N-[(cis-4-{[4-(dimethylamino)quinazolin-2-yl]amino}cyclohexyl)methyl]-2-hydroxy-2-phenylacetamide]"
9,50 to 200 nM,"COc1ccccc1NC(=O)NC[C@H]1CC[C@@H](Nc2nc(N(C)C)c3ccccc3n2)CC1 [Example 1015, N-[(cis-4-{[4-(dimethylamino)quinazolin-2-yl]amino}cyclohexyl)methyl]-N′-(2-methoxyphenyl)urea]"

# From US20070010671A1, “Novel quinazoline derivatives and methods of treatment related to the use thereof” (priority 2003, published 2007)
